Columns and labels:
[1] = target: Protein kinase C alpha type (Homo sapiens, UniProt P17252); experiment: Inhibition of [20-3H]phorbol-12,13-dibutyrate (PDBU) binding to protein kinase C (alpha)
[2] = target: Protein kinase C, PKC; classical/novel; experiment: Inhibition of [20-3H]phorbol-12,13-dibutyrate (PDBU) binding to protein kinase C; type: protein assay

Ki [1] [nM]	Ki [2] [nM]	SMILES
600		CCCCCCCCCCCCCC[C@@H]1C(=O)O[C@@H](CO)[C@@H]1OC(C)=O
500	600	CCCCCCCCCCCCCC[C@H]1C(=O)O[C@@H](CO)[C@@H]1OC(C)=O

Source: ChEMBL document CHEMBL1126493, “Conformationally constrained analogues of diacylglycerol (DAG). 4. Interaction of -alkylidene--lactones with protein kinase C (PK-C)” (Bioorg Med Chem Lett, 1993)
